Results on 4 compounds are retold here after patent US11884676B2, “Substituted pyrimido[1,2-b]pyridazines as positive allosteric modulators of the muscarinic acetylcholine receptor M4” (Vanderbilt University, priority 2020, dated 2024).

The conditions of data set [1]: cited from earlier work.
The conditions of data set [2]: Alzheimer's disease patients; Bodick et al. 1997; cited from earlier work.
For data set [3] the following is noted: human, in vivo; cited from earlier work.
The target in another data set is T1, Human M4 (Homo sapiens, UniProt P08173).
T1 construct: expressed in transfected cells
T1 sequence (P08173 1-479): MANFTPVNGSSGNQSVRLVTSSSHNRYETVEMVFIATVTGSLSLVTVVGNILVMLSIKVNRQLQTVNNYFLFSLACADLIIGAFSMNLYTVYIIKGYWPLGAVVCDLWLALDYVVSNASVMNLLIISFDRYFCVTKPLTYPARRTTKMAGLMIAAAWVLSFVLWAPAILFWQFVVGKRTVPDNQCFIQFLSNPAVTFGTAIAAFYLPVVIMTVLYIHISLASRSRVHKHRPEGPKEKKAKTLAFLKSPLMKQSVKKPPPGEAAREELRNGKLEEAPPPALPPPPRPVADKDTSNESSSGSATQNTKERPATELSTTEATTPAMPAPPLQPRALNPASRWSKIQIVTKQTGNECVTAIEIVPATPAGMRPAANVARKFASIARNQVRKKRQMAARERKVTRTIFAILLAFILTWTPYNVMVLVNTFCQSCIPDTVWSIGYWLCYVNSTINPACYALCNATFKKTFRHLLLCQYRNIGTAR
The data set can be described thus: mAChR M4 cell-based functional assay (calcium flux, PAM mode). Particulars: hM4-Gqi5 CHO-K1 cells; for Emax at 30 µM: CHO-K1, % ACh maximum at 30 μM; for EC50: concentration-dependent increase in the EC20 acetylcholine response. Summed up: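 PAM potency (EC50) and Emax came from four-parameter fits of the rise in EC20 acetylcholine-evoked calcium signal (Fluo-4, FDSS, 1 Hz). Human M4/Gqi5 CHO-K1 stable line; 11-point 1:3 compound series preceded ACh EC20 addition at 144 s, with EC80 ACh added at 230 s.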
On the technique in general: A change in cytosolic calcium serves as a functional read-out for many receptors and channels.

As to `CCCCCCOc1nsnc1C1=CCCN(C)C1` [xanomeline], in data set [1] (Bymaster et al., Shannon et al.), the “activity in animal models with similar profiles to known antipsychotic drugs” value was “active”. The catalepsy result in data set [1] (animal models) is recorded as “without causing catalepsy”. Further, the “psychotic behavioral symptoms such as delusions, suspiciousness, vocal outbursts, and hallucinations” value in data set [2] is “reduce psychotic behavioral symptoms”.

`Nc1c2c(nc3ccccc13)CCCC2` [tacrine]: the “elevated liver transaminases observed in patients” value in data set [3] was “about 30 % of patients”.

As for `[2H]C1([2H])Oc2ccc(OC3CCN(c4nn5c(=O)ccnc5c(C)c4C)CC3)cc2OC1([2H])[2H]` [Compound 2, 7-(4-((2,3-Dihydrobenzo[b][1,4]dioxin-6-yl-2,2,3,3-d4)oxy)piperidin-1-yl)-8,9-dimethyl-4H-pyrimido[1,2-b]pyridazin-4-one], at Human M4, the maximum response (Emax) at 30 µM turned out to be 100% and the EC50 stood at 26 nM.

As for `[2H]C1([2H])Oc2ccc(O[C@@H]3CCN(c4nn5c(=O)ccnc5c(C)c4C)C[C@H]3F)cc2OC1([2H])[2H]` [Compound 128, 7-((3R,4R)-4-((2,3-dihydrobenzo[b][1,4]dioxin-6-yl-2,2,3,3-d4)oxy)-3-fluoropiperidin-1-yl)-8,9-dimethyl-4H-pyrimido[1,2-b]pyridazin-4-one], at Human M4, the Emax at 30 µM is 125% and the EC50 worked out at 53 nM.

The Emax is the greatest response seen or fitted, relative to the assay's reference. The EC50 is the concentration at which the effect is half-maximal.
